Tests used:
Type in all cases: physicochemical
[1] = Evaluation of moisture absorption (equilibrium moisture regain); conditions: for Weight increase: relative humidity increased from 5% to 95%, 25° C.
Method: • Sample Amount: 5 to 12 mg • Measuring Temperature: 25° C. • Equilibrium Weight/time: 0.01 wt %/5 minutes • Maximum Equilibration Time: 180 minutes • Measurement Range: 5% relative humidity-95% relative humidity-5% relative humidity • Measurement Interval: 5% relative humidity
To evaluate whether the crystal form changes or not, the powder X-ray diffraction measurement was carried out for each crystal of Form A, Form B, Form C, Form D and Form E (hydrate) obtained after the evaluation test of moisture absorption. Only for the Form A crystal, the measurement range (2θ) of the powder X-ray diffraction measurement was changed to 2 to 35°, and the measurement was carried out at 25° C., 90% relative humidity. A humidity generator (HUM-1A; manufactured by Rigaku) was used to control humidity.

[2] = Evaluation of solid-state stability (60° C., four weeks, air-tightly); conditions: for Purity [%] Initial value / Purity [%] After 4 weeks: HPLC; for Purity [%] Initial value: before storage; for Purity [%] After 4 weeks / Decomposition product increased by not less than 0.15% after 4 weeks / Crystal form after 4 weeks: stored air-tightly at 60° C. for four weeks; for Crystal form after 4 weeks: powder X-ray diffraction and TG-DTA
Method: The amorphous form, and the crystals of Form A, Form B, Form C, Form D and Form E (hydrate) of the subject compound were stored air-tightly at 60° C. for four weeks, and the purities thereof before and after the storage were measured by high performance liquid chromatography (hereinafter referred to as “HPLC”) under the following conditions. The powder X-ray diffraction measurement and TG-DTA were carried out to evaluate whether the crystal forms were changed or not due to the storage. Aqueous sodium dihydrogen phosphate solution in a concentration of 20 mmol/L (hereinafter referred to as “aqueous SDP solution”) used to prepare a mobile phase of HPLC was prepared by adding distilled water (3 L) to weighed sodium dihydrogen phosphate dihydrate (9.36 g) and stirring the resulting solution to dissolve the dihydrate. An analytical sample of HPLC was prepared by weighing and adding each crystal (1.75 mg) of the subject compound to a 10-mL measuring flask respectively; adding acetonitrile (2 mL) thereto to dissolve the crystal; and then adding aqueous SDP solution thereto to a total volume of 10 mL.
• Detection Wavelength: 210 nm • Column: YMC-Pack Pro C18 AS-303 • Mobile Phase A: aqueous SDP solution/acetonitrile=80:20 (v/v) • Mobile Phase B: acetonitrile/aqueous SDP solution=70:30 (v/v) • Composition of Mobile Phase B: 0 to 60 minutes: 0→100% • 60 to 65 minutes: 100%, • 65 to 66 minutes: 100→0%, • 66 to 75 minutes: 0% • Flow rate: 1.0 mL/min • Column Temperature: 40° C. • Amount of Injected Sample: 20 μL

[3] = Physical stability of crystal form in solvents; conditions: solvents (e.g., toluene, methanol, 2-propanol)
[4] = Crystal form after milling (powder X-ray diffraction, TG-DTA); conditions: pin milled and jet milled products
[5] = Storage stability test (accelerated testing) of Form C crystal; conditions: 40° C., 75% relative humidity; for Purity [%] Initial value: HPLC, before storage, 6 months column
Method: The Form C crystals of the subject compound were stored under acceleration conditions (40° C., 75% relative humidity) air-tightly or under open conditions for six months, and the purities of the crystals before and after the storage were measured by HPLC under conditions below. The powder X-ray diffraction measurement and TG-DTA were carried out to evaluate whether the crystal form was changed or not due to storage.
Phosphate buffer in a concentration of 20 mmol/L (pH 3.9) (hereinafter referred to as “Buffer X”) used to prepare a mobile phase of HPLC was prepared by adding 20 mmol/L of aqueous phosphoric acid solution to 20 mmol/L of aqueous potassium dihydrogen phosphate solution. 20 mmol/L of the aqueous potassium dihydrogen phosphate solution was prepared by adding the weighed potassium dihydrogen phosphate (8.2 g) to distilled water (3 L), and stirring the resulting solution to dissolve the phosphate, and 20 mmol/L of the aqueous phosphoric acid solution was prepared by adding phosphoric acid (1.4 mL) to distilled water (1 L), and mixing the resulting solution under stirring.
Phosphate buffer in a concentration of 20 mmol/L (pH 7.0) (hereinafter referred to as “Buffer Y”) used to prepare an analytical sample of HPLC was prepared by adding 20 mmol/L of aqueous phosphoric acid solution to 20 mmol/L of aqueous dipotassium hydrogen phosphate solution. 20 mmol/L of aqueous dipotassium hydrogen phosphate solution was prepared by adding the weighed dipotassium hydrogen phosphate (3.5 g) to distilled water (1 L), and stirring the resulting solution.
Further, the analytical sample of HPLC was prepared by weighing and adding the Form C crystals of the subject compound (10 mg) to a 50-mL measuring flask, and adding a mixture of Buffer Y and acetonitrile at a ratio of 80:20 to a total amount of 50 mL.
• Detection Wavelength: 210 nm • Column: YMC-Pack Pro C18 • AS12S05-2546WT • Mobile Phase A: buffer X/acetonitrile=80:20 (v/v) • Mobile Phase B: acetonitrile/buffer X=70:30 (v/v) • Composition of Mobile Phase B: 0 to 80 minutes: 0→100% • 80 to 85 minutes: 100% • 85 to 86 minutes: 100→0% • 86 to 95 minutes: 0% • Flow Rate: 1.0 mL/min • Column Temperature: 40° C. • Amount of Injected Sample: 20 μL

Compound	Weight increase [1] [%]	Purity [%] Initial value [2] [%]	Purity [%] After 4 weeks [2] [%]	Decomposition product increased by not less than 0.15% after 4 weeks [2]	Crystal form after 4 weeks [2]	Transfer of crystal form in solvents [3]	Change in the crystal form due to milling [4]	Crystal form after 6 months ([5]; air-tightly)	Decomposition product increased by not less than 0.15% after 6 months ([5]; air-tightly)	Purity [%] After 6 months ([5]; air-tightly) [%]	Crystal form after 6 months ([5]; open condition)	Decomposition product increased by not less than 0.15% after 6 months ([5]; open condition)	Purity [%] After 6 months ([5]; open condition) [%]	Purity [%] Initial value ([5]; air-tightly) [%]	Purity [%] Initial value ([5]; open condition) [%]	Change in crystal form ([1]; powder X-ray diffraction after the moisture absorption test)
CN(c1ccc(/C=C/C[C@H](NC(=O)c2c(Cl)cccc2Cl)C(=O)O)cc1)c1ncccn1 [Form D, (S,E)-2-(2,6-dichlorobenzamido)-5-[4-(methyl-pyrimidin-2-ylamino)phenyl]pent-4-enoic acid]	1.0	98.0	98.0	nothing	Mixed crystals^2)	–	–	–	–	–	–	–	–	–	–	–
CN(c1ccc(/C=C/C[C@H](NC(=O)c2c(Cl)cccc2Cl)C(=O)O)cc1)c1ncccn1 [Form C, (S,E)-2-(2,6-dichlorobenzamido)-5-[4-(methyl-pyrimidin-2-ylamino)phenyl]pent-4-enoic acid]	–	98.9	98.9	nothing	Form C	not transferred to the another form	no change in the crystal form	Form C	Nothing	99.5	Form C	Nothing	99.4	99.5	99.5	–
CN(c1ccc(/C=C/C[C@H](NC(=O)c2c(Cl)cccc2Cl)C(=O)O)cc1)c1ncccn1 [Form E, (S,E)-2-(2,6-dichlorobenzamido)-5-[4-(methyl-pyrimidin-2-ylamino)phenyl]pent-4-enoic acid]	0.4	96.6	96.9	nothing	Form E	–	–	–	–	–	–	–	–	–	–	–

The remaining lines, values ahead:

Weight increase [1] [%]	Purity [%] Initial value [2] [%]	Purity [%] After 4 weeks [2] [%]	Decomposition product increased by not less than 0.15% after 4 weeks [2]	Crystal form after 4 weeks [2]	Transfer of crystal form in solvents [3]	Change in the crystal form due to milling [4]	Crystal form after 6 months ([5]; air-tightly)	Decomposition product increased by not less than 0.15% after 6 months ([5]; air-tightly)	Purity [%] After 6 months ([5]; air-tightly) [%]	Crystal form after 6 months ([5]; open condition)	Decomposition product increased by not less than 0.15% after 6 months ([5]; open condition)	Purity [%] After 6 months ([5]; open condition) [%]	Purity [%] Initial value ([5]; air-tightly) [%]	Purity [%] Initial value ([5]; open condition) [%]	Change in crystal form ([1]; powder X-ray diffraction after the moisture absorption test)	Compound
1.9	99.8	99.8	nothing	Form B	–	–	–	–	–	–	–	–	–	–	–	CN(c1ccc(/C=C/C[C@H](NC(=O)c2c(Cl)cccc2Cl)C(=O)O)cc1)c1ncccn1 [Form B, (S,E)-2-(2,6-dichlorobenzamido)-5-[4-(methyl-pyrimidin-2-ylamino)phenyl]pent-4-enoic acid]
–	95.8	92.0	8 different	Amorphous	–	–	–	–	–	–	–	–	–	–	–	CN(c1ccc(/C=C/C[C@H](NC(=O)c2c(Cl)cccc2Cl)C(=O)O)cc1)c1ncccn1 [Amorphous, (S,E)-2-(2,6-dichlorobenzamido)-5-[4-(methyl-pyrimidin-2-ylamino)phenyl]pent-4-enoic acid]
3.4	97.3	97.5	nothing	Form B	–	–	–	–	–	–	–	–	–	–	changed^2)	CN(c1ccc(/C=C/C[C@H](NC(=O)c2c(Cl)cccc2Cl)C(=O)O)cc1)c1ncccn1 [Form A, (S,E)-2-(2,6-dichlorobenzamido)-5-[4-(methyl-pyrimidin-2-ylamino)phenyl]pent-4-enoic acid]

— patent US20140128605A1, “CRYSTALS OF GLYCINE DERIVATIVE AND PHARMACEUTICAL USE THEREOF” (Toray Industries, Inc., priority 2011, published 2014)
